Assay results taken from patent US20120132797A1, “MEANS AND METHODS FOR DIAGNOSING THYROID DISORDERS” (BASF SE, priority 2009, published 2012).

System: Wistar (Crl:WI(Han)) rats
Test: Mass spectrometry-based plasma metabolite profiling of rats treated with known inducers of thyroid function impairment
Type: in vivo, rat
Conditions: ratio of group medians vs controls
Summary of the method: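 Rats aged 10-11 weeks, 5/sex/dose vs 10/sex controls, dosed at low and high levels; retro-orbital plasma taken under isoflurane on days 7, 14 and 28 after 16-20 h fast. Polar and non-polar fractions profiled by GC-MS (derivatised) and LC-MS/MS (MRM plus full scan), normalised to pool samples; Welch t-test by sex and day gives p-values and median ratios.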

[1] = female rats, fh7 (study day 7), Table 1
[2] = female rats, fh14 (study day 14), Table 1
[3] = female rats, fh28 (study day 28), Table 1
[4] = male rats, mh7 (study day 7), Table 2
[5] = male rats, mh7 (study day 7), Table 4
[6] = male rats, mh14 (study day 14), Table 2
[7] = male rats, mh14 (study day 14), Table 4
[8] = male rats, mh28 (study day 28), Table 2
[9] = male rats, mh28 (study day 28), Table 4

Cn1cc[nH]c1=S [Methimazole]
5-O-Methylsphingosine [1]: 3.55
Asparagine [1]: 1.17
Behenic acid (C22:0) [1]: 2.08
Citrate [1]: 0.83
Docosahexaenoic acid (C22:cis[4,7,10,13,16]6) [1]: 2.16
Glycine [1]: 1.14
Ketoleucine [1]: 0.86
Lysophosphatidylcholine (C18:2) [1]: 1.52
Phosphatidylcholine (C16:1, C18:2) [1]: 1.89
Phosphatidylcholine (C18:2, C20:4) [1]: 1.39
Pyruvate [1]: 0.62
Tricosanoic acid (C23:0) [1]: 2.05
erythro-Sphingosine [1]: 2.56
threo-Sphingosine [1]: 2.46
Sphingomyelin (d18:1, C16:0) (female rats, fh7 (study day 7), Table 1, first listing): 1.89
Sphingomyelin (d18:1, C16:0) (female rats, fh7 (study day 7), Table 1, second listing): 1.45
5-O-Methylsphingosine [2]: 3.80
Asparagine [2]: 1.12
Behenic acid (C22:0) [2]: 2.63
Citrate [2]: 0.76
Docosahexaenoic acid (C22:cis[4,7,10,13,16]6) [2]: 1.32
Glycine [2]: 1.14
Ketoleucine [2]: 0.80
Lysophosphatidylcholine (C18:2) [2]: 1.57
Phosphatidylcholine (C16:1, C18:2) [2]: 2.40
Phosphatidylcholine (C18:2, C20:4) [2]: 1.25
Pyruvate [2]: 0.53
Tricosanoic acid (C23:0) [2]: 2.54
erythro-Sphingosine [2]: 3.21
threo-Sphingosine [2]: 3.21
Sphingomyelin (d18:1, C16:0) (female rats, fh14 (study day 14), Table 1, first listing): 2.54
Sphingomyelin (d18:1, C16:0) (female rats, fh14 (study day 14), Table 1, second listing): 1.44
5-O-Methylsphingosine [3]: 2.83
Asparagine [3]: 1.12
Behenic acid (C22:0) [3]: 2.03
Citrate [3]: 0.84
Docosahexaenoic acid (C22:cis[4,7,10,13,16]6) [3]: 1.22
Glycine [3]: 1.28
Ketoleucine [3]: 0.78
Lysophosphatidylcholine (C18:2) [3]: 1.31
Phosphatidylcholine (C16:1, C18:2) [3]: 2.21
Phosphatidylcholine (C18:2, C20:4) [3]: 1.33
Pyruvate [3]: 0.79
Tricosanoic acid (C23:0) [3]: 1.96
erythro-Sphingosine [3]: 2.44
threo-Sphingosine [3]: 2.37
Sphingomyelin (d18:1, C16:0) (female rats, fh28 (study day 28), Table 1, first listing): 1.77
Sphingomyelin (d18:1, C16:0) (female rats, fh28 (study day 28), Table 1, second listing): 1.31
3-O-Methylsphingosine [4]: 3.47
5-O-Methylsphingosine [4]: 3.57
14-Methyl-Pentadecanoic acid [4]: 1.13
17-Methyloctadecanoic acid [4]: 1.36
Arginine [4]: 1.09
Cholesterol [4]: 1.98
Citrate [4]: 0.69
Dihom-gamma-Linolenic acid (C20:cis[8,11,14]3) [4]: 2.38
Lignoceric acid (C24:0) [4]: 2.12
Phytosphingosine [4]: 2.08
Sphingomyelin (d18:1, C16:0) [4]: 2.24
Tricosanoic acid (C23:0) [4]: 1.93
alpha-Tocopherol [4]: 1.76
erythro-Sphingosine [4]: 2.92
threo-Sphingosine [4]: 3.02
Glutamate (male rats, mh7 (study day 7), Table 2, first listing): 0.61
Glutamate (male rats, mh7 (study day 7), Table 2, second listing): 0.75
Behenic acid (C22:0) [5]: 2.02
Cholesterol [5]: 1.69
Citrate [5]: 0.69
Cytosine [5]: 0.65
Galactose, lipid fraction [5]: 1.60
Glycerol phosphate [5]: 2.09
Glycine [5]: 1.42
Lignoceric acid (C24:0) [5]: 2.12
Mannose [5]: 1.06
Nervonic acid C24:(cis[15]1) [5]: 2.59
Phospha-tidylcholine (C18:0, 18:2) [5]: 1.11
Sphingomyelin (d18:1, C16:0) [5]: 2.24
Stearic acid (C18:0) [5]: 1.34
Threonic acid [5]: 0.72
dihomo-gamma-Linolenic acis (C20:cis[8,11,14]3) [5]: 2.38
erythro-Sphingosine [5]: 2.92
myo-Inositol-2-phosphate [5]: 2.55
threo-Sphingosine [5]: 3.02
3-O-Methylsphingosine [6]: 3.85
5-O-Methylsphingosine [6]: 4.15
14-Methyl-Pentadecanoic acid [6]: 0.85
17-Methyloctadecanoic acid [6]: 0.92
Arginine [6]: 1.09
Cholesterol [6]: 2.31
Citrate [6]: 0.69
Dihom-gamma-Linolenic acid (C20:cis[8,11,14]3) [6]: 3.22
Lignoceric acid (C24:0) [6]: 2.82
Phytosphingosine [6]: 2.92
Sphingomyelin (d18:1, C16:0) [6]: 2.27
Tricosanoic acid (C23:0) [6]: 2.69
alpha-Tocopherol [6]: 2.66
erythro-Sphingosine [6]: 3.71
threo-Sphingosine [6]: 3.78
Glutamate (male rats, mh14 (study day 14), Table 2, first listing): 0.57
Glutamate (male rats, mh14 (study day 14), Table 2, second listing): 0.49
Behenic acid (C22:0) [7]: 3.03
Cholesterol [7]: 1.93
Citrate [7]: 0.69
Cytosine [7]: 0.46
Galactose, lipid fraction [7]: 1.46
Glycerol phosphate [7]: 1.67
Glycine [7]: 1.25
Lignoceric acid (C24:0) [7]: 2.82
Mannose [7]: 1.04
Nervonic acid C24:(cis[15]1) [7]: 3.00
Phospha-tidylcholine (C18:0, 18:2) [7]: 1.28
Sphingomyelin (d18:1, C16:0) [7]: 2.27
Stearic acid (C18:0) [7]: 1.40
Threonic acid [7]: 0.69
dihomo-gamma-Linolenic acis (C20:cis[8,11,14]3) [7]: 3.22
erythro-Sphingosine [7]: 3.71
myo-Inositol-2-phosphate [7]: 2.35
threo-Sphingosine [7]: 3.78
3-O-Methylsphingosine [8]: 4.55
5-O-Methylsphingosine [8]: 3.40
14-Methyl-Pentadecanoic acid [8]: 0.54
17-Methyloctadecanoic acid [8]: 0.45
Arginine [8]: 1.14
Cholesterol [8]: 2.03
Citrate [8]: 0.73
Dihom-gamma-Linolenic acid (C20:cis[8,11,14]3) [8]: 2.02
Lignoceric acid (C24:0) [8]: 2.16
Phytosphingosine [8]: 3.04
Sphingomyelin (d18:1, C16:0) [8]: 1.92
Tricosanoic acid (C23:0) [8]: 2.50
alpha-Tocopherol [8]: 2.18
erythro-Sphingosine [8]: 3.47
threo-Sphingosine [8]: 4.30
Glutamate (male rats, mh28 (study day 28), Table 2, first listing): 0.46
Glutamate (male rats, mh28 (study day 28), Table 2, second listing): 0.40
Behenic acid (C22:0) [9]: 3.01
Cholesterol [9]: 1.56
Citrate [9]: 0.73
Cytosine [9]: 0.39
Galactose, lipid fraction [9]: 1.53
Glycerol phosphate [9]: 1.46
Glycine [9]: 0.98
Lignoceric acid (C24:0) [9]: 2.16
Mannose [9]: 0.87
Nervonic acid C24:(cis[15]1) [9]: 2.23
Phospha-tidylcholine (C18:0, 18:2) [9]: 1.35
Sphingomyelin (d18:1, C16:0) [9]: 1.92
Stearic acid (C18:0) [9]: 1.16
Threonic acid [9]: 0.69
dihomo-gamma-Linolenic acis (C20:cis[8,11,14]3) [9]: 2.02
erythro-Sphingosine [9]: 3.47
myo-Inositol-2-phosphate [9]: 1.85
threo-Sphingosine [9]: 4.30
